Data taken from patent US11725036B2, “Modified lipidated relaxin B chain peptides and their therapeutic use” (Sanofi, priority 2018, dated 2023).
Starred links: 1 amine or outer side, 2 acyl side, 3 side chain; linkers in the order of their positions; H or OH if unused. Non-standard residues stand in square brackets, D forms with d. Residues, ends and D or L forms follow the SMILES beside them. Groups on a side chain read outwards from the residue. *: point of attachment. X1 = CCCCCCCCCCCCCCCC(=O)N[C@@H](CCC(=O)N[C@@H](CCC(=O)N[C@@H](CCC(=O)NCCCOCCOCCOCCCNC(=O)CCC(=O)NCCCOCCOCCOCCCNC(=O)CCC(=O)NCCCOCCOCCOCCCN*)C(=O)O)C(=O)O)C(=O)O; X8 = CCCCCCCCCCCCCCCC(=O)N[C@@H](CCC(=O)N[C@@H](CCC(=O)N[C@@H](CCC(=O)N[C@@H](CCC(=O)NCCCOCCOCCOCCCNC(=O)CCC(=O)NCCCOCCOCCOCCCN*)C(=O)O)C(=O)O)C(=O)O)C(=O)O; X9 = CCCCCCCCCCCCCCCC(=O)N[C@@H](CCC(=O)N[C@@H](CCC(=O)NCCCOCCOCCOCCCNC(=O)CCC(=O)NCCCOCCOCCOCCCN*)C(=O)O)C(=O)O; Cit = NC(=O)NCCC[C@H](N)C(=O)O; Suc = O=C(CCC(=O)[*:2])[*:1]; αMeK = C[C@](N)(CCCCN)C(=O)O; Aib = CC(C)(N)C(=O)O

Biological target: T1, RXFP1 (Homo sapiens, UniProt Q9HBX9)
T1 construct: OVCAR5 cells expressing endogenous RXFP1; endogenous in cells; host or cells: OVCAR5
T1 sequence (Q9HBX9 1-757): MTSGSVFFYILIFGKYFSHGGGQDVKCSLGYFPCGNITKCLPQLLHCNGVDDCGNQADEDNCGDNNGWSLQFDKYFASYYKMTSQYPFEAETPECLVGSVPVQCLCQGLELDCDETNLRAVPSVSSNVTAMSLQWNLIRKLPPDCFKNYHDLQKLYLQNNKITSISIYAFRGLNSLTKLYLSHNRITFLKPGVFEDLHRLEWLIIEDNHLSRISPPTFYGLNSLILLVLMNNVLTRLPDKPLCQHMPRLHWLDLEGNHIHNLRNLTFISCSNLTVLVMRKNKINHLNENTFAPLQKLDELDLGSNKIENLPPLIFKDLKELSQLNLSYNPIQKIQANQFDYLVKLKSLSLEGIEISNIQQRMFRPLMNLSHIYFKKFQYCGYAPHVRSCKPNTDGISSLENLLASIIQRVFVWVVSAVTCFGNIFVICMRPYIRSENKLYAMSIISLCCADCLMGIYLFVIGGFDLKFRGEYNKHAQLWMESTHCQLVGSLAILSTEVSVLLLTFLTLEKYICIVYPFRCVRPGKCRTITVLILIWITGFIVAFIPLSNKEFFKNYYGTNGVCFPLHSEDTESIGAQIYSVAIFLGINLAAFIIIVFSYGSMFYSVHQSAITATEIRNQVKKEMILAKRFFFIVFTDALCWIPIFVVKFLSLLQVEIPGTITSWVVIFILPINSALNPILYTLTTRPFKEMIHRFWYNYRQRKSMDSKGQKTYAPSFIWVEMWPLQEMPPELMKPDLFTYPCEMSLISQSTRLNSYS
Assay: OVCAR5 cAMP assay (HTRF)
Assay type: cell-based
Conditions: for EC50: OVCAR 5 cells expressing endogenous RXFP1, cAMP readout; for Emax: OVCAR 5 cells, maximal cAMP relative to H2-relaxin
Excerpt: OVCAR5 cells expressing endogenous RXFP1 were used to test RXP1 agonist properties of peptides of the invention, and in particular of the peptides of sequence SEQ ID NO: 1-97.
Since RXFP1 is a Gs coupled GPCR, cAMP was used as readout of RXFP1 activation.
Isobutyl Methyl Xanthine (IBMX) was used to inhibit phosphodiesterase activity facilitating cAMP measurements. HTRF (Homogenous Time Resolved Fluorescence) technology was used to detect cAMP due to its great sensitivity.
In summary, OVCAR5 were grown in regular medium (RPMI) containing 10% fetal calf serum (FCS) and 1% antibiotics (penicillin/streptomycin).
Before the experiments, cells were detached with accutase and incubated for 40 minutes at 37° C. with 1 mM (3-isobutyl-1-methylxanthine) IBMX.
Cells were then distributed in 384 black well plates containing increasing concentrations of the different peptides in a fix volume of medium (without FCS).
After an incubation of 30 min at 37° C. in an humid incubator in 5% CO2, the reaction was stopped by adding a fixed volume of a solution containing a lysis buffer and cAMP-D2 (cAMP labeled with the dye d2) and the anti cAMP antibody linked to Europium and used for cAMP detection.
Readout of the experiment were performed on a fluorimeter allowing HTRF measurement. Activation curves were generated by plotting the intracellular value of cAMP versus log 10 of the compound concentration.
The 50% activation concentration (EC50) was calculated by nonlinear regression using the sigmoidal dose-response (variable slope) equation with Prism 5 software.
Emax % was determined as the maximal intracellular value of cAMP for test compound (upper limit of cAMP vs concentration curve) divided by the maximal intracellular value of cAMP for H2-relaxin determined in the same test occasion multiplied by 100. Emax %=100×[cAMPtest cpd]/[cAMPH2-Rlx]

EC50 [nM]	Emax [%]	Structure (SMILES)
0.7	93	CCCCCCCCCCCCCCCC(=O)N[C@@H](CCC(=O)N[C@@H](CCC(=O)NCCCOCCOCCOCCCNC(=O)CCC(=O)NCCCOCCOCCOCCCNC(=O)CCC(=O)NCCCC[C@H](NC(=O)CNC(=O)[C@H](CCC(=O)O)NC(=O)C(C)(C)NC(=O)C(C)(C)NC(=O)[C@@H](NC(=O)[C@H](CCCCNC(C)=O)NC(=O)[C@H](C)NC(=O)[C@H](CCCNC(=N)N)NC(=O)[C@@H](NC(=O)[C@H](CCCCN)NC(=O)[C@H](CCC(=O)O)NC(=O)[C@H](CCCNC(=N)N)NC(=O)CNC(=O)[C@H](CCC(=O)O)NC(=O)[C@H](CC(C)C)NC(C)=O)C(C)C)[C@@H](C)CC)C(=O)N[C@@H](CO)C(=O)N[C@H](C(=O)N[C@@H](Cc1ccccc1)C(=O)N[C@@H](CO)C(=O)N[C@@](C)(CCCCN)C(=O)N[C@@H](CCCNC(=N)N)C(=O)N[C@@H](C)C(=O)N[C@@H](CCCCNC(C)=O)C(N)=O)[C@@H](C)O)C(=O)O)C(=O)O [compound 9] (Ac-LEGREKVRAK(Ac)I[Aib][Aib]EGK([Suc-X9])STFS[αMeK]RAK(Ac)-NH2)
0.79	95	CCCCCCCCCCCCCCCC(=O)N[C@@H](CCC(=O)N[C@@H](CCC(=O)N[C@@H](CCC(=O)N[C@@H](CCC(=O)NCCCOCCOCCOCCCNC(=O)CCC(=O)NCCCOCCOCCOCCCNC(=O)CCC(=O)NCCCC[C@H](NC(=O)CNC(=O)[C@H](CCC(=O)O)NC(=O)C(C)(C)NC(=O)C(C)(C)NC(=O)[C@@H](NC(=O)[C@H](CCCCNC(C)=O)NC(=O)[C@H](C)NC(=O)[C@H](CCCNC(=N)N)NC(=O)[C@@H](NC(=O)[C@H](CCCCN)NC(=O)[C@H](CCC(=O)O)NC(=O)[C@H](CCCNC(=N)N)NC(=O)CNC(=O)[C@H](CCC(=O)O)NC(=O)[C@H](CC(C)C)NC(C)=O)C(C)C)[C@@H](C)CC)C(=O)N[C@@H](CO)C(=O)N[C@H](C(=O)N[C@@H](Cc1ccccc1)C(=O)N[C@@H](CO)C(=O)N[C@@](C)(CCCCN)C(=O)N[C@@H](CCCNC(=N)N)C(=O)N[C@@H](C)C(=O)N[C@@H](CCCCNC(C)=O)C(N)=O)[C@@H](C)O)C(=O)O)C(=O)O)C(=O)O)C(=O)O [compound 10] (Ac-LEGREKVRAK(Ac)I[Aib][Aib]EGK([Suc-X8])STFS[αMeK]RAK(Ac)-NH2)
0.83	93	CCCCCCCCCCCCCCCC(=O)N[C@@H](CCC(=O)N[C@@H](CCC(=O)N[C@@H](CCC(=O)NCCCOCCOCCOCCCNC(=O)CCC(=O)NCCCOCCOCCOCCCNC(=O)CCC(=O)NCCCOCCOCCOCCCNC(=O)CCC(=O)NCCCC[C@H](NC(=O)CNC(=O)[C@H](CCC(=O)O)NC(=O)C(C)(C)NC(=O)C(C)(C)NC(=O)[C@@H](NC(=O)[C@H](CCCCNC(C)=O)NC(=O)[C@H](C)NC(=O)[C@H](CCCNC(=N)N)NC(=O)[C@@H](NC(=O)[C@H](CCCCN)NC(=O)[C@H](CCC(=O)O)NC(=O)[C@H](CCCNC(=N)N)NC(=O)CNC(=O)[C@H](CCC(=O)O)NC(=O)[C@H](CC(C)C)NC(C)=O)C(C)C)[C@@H](C)CC)C(=O)N[C@@H](CO)C(=O)N[C@H](C(=O)N[C@@H](Cc1c[nH]c2ccccc12)C(=O)N[C@@H](CO)C(=O)N[C@@](C)(CCCCN)C(=O)N[C@@H](CCCNC(=N)N)C(=O)N[C@@H](C)C(=O)N[C@@H](CCCCNC(C)=O)C(N)=O)[C@@H](C)O)C(=O)O)C(=O)O)C(=O)O [compound 11] (Ac-LEGREKVRAK(Ac)I[Aib][Aib]EGK([Suc-X1])STWS[αMeK]RAK(Ac)-NH2)
0.93	90	CCCCCCCCCCCCCCCC(=O)N[C@@H](CCC(=O)N[C@@H](CCC(=O)N[C@@H](CCC(=O)NCCCOCCOCCOCCCNC(=O)CCC(=O)NCCCOCCOCCOCCCNC(=O)CCC(=O)NCCCOCCOCCOCCCNC(=O)CCC(=O)NCCCC[C@H](NC(=O)CNC(=O)[C@H](CCC(=O)O)NC(=O)C(C)(C)NC(=O)C(C)(C)NC(=O)[C@@H](NC(=O)[C@H](CCCNC(N)=O)NC(=O)[C@H](C)NC(=O)[C@H](CCCNC(=N)N)NC(=O)[C@@H](NC(=O)[C@H](CCCCN)NC(=O)[C@H](CCC(=O)O)NC(=O)[C@H](CCCNC(=N)N)NC(=O)CNC(=O)[C@H](CCC(=O)O)NC(=O)[C@H](CC(C)C)NC(C)=O)C(C)C)[C@@H](C)CC)C(=O)N[C@@H](CO)C(=O)N[C@H](C(=O)N[C@@H](Cc1ccccc1)C(=O)N[C@@H](CO)C(=O)N[C@@](C)(CCCCN)C(=O)N[C@@H](CCCNC(=N)N)C(=O)N[C@@H](C)C(=O)N[C@@H](CCCCNC(C)=O)C(N)=O)[C@@H](C)O)C(=O)O)C(=O)O)C(=O)O [compound 12] (Ac-LEGREKVRA[Cit]I[Aib][Aib]EGK([Suc-X1])STFS[αMeK]RAK(Ac)-NH2)
